From ChEMBL document CHEMBL5108067, “Discovery of Potent OTUB1/USP8 Dual Inhibitors Targeting Proteostasis in Non-Small-Cell Lung Cancer” (J Med Chem, 2022)

What follows are compounds tested against T1, Ubiquitin carboxyl-terminal hydrolase 8 (Homo sapiens) (UniProt P40818) (assay: Inhibition of N-terminal His-6 tagged USP8 (734 to 1110 residues) (unknown origin) expressed in Escherichia coli BL21 (DE3) cells at 10 nM measured after 3 hrs by fluorescence based Plate reader method relative to control). Settings: values are per cent of control.
T1 sequence (whole entry): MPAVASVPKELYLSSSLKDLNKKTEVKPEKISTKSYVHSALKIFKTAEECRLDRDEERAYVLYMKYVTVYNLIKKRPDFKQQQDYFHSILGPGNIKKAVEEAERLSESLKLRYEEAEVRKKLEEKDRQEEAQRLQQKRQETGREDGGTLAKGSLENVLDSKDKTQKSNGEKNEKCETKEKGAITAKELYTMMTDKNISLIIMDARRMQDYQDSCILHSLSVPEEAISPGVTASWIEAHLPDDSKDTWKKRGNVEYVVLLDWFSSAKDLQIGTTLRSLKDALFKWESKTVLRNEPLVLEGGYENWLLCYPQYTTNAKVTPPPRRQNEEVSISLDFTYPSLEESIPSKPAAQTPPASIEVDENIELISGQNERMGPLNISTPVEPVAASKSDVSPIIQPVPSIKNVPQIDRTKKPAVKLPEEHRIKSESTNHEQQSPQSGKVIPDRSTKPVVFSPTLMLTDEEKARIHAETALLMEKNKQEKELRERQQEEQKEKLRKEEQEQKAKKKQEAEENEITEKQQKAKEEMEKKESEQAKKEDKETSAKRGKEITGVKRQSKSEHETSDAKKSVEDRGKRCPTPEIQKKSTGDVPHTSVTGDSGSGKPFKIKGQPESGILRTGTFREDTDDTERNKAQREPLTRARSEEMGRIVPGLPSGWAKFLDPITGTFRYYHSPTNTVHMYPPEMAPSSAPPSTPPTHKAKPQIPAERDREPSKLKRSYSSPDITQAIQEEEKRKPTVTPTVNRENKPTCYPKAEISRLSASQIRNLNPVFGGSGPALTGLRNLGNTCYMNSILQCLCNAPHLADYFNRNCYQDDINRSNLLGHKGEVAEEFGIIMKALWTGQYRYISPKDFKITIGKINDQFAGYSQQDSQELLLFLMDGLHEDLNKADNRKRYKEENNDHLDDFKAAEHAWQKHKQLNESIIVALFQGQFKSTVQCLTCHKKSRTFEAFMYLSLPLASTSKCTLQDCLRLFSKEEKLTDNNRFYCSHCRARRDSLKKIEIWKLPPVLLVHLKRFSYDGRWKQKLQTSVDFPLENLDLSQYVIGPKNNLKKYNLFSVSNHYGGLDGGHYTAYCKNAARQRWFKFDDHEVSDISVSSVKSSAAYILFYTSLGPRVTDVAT
`O=C1c2ccccc2C(=O)c2oc(-c3cc(Cl)ccc3Cl)nc21` was tested, and the residual activity was 44.5%.
`CN(C)CCOc1cccc(-c2nc3c([nH]2)C(=O)c2ccccc2C3=O)c1` was tested, and the residual activity was 88.7%.
Compound `Cc1ccc(-c2nc3c(o2)C(=O)c2ccccc2C3=O)cc1` has a residual activity of 58.6%.
In the case of `O=C1c2ccccc2C(=O)c2oc(-c3ccccc3[N+](=O)[O-])nc21`, the residual activity is reported as 51.1%.
Compound `O=C1c2ccccc2C(=O)c2oc(-c3cccc(Cl)c3)nc21` has a residual activity of 66.3%.
For `CN1CC[C@@H](Oc2cccc(-c3nc4c(o3)C(=O)c3ccccc3C4=O)c2F)C1`, the residual activity was 71.6%.
`O=C1c2ccccc2C(=O)c2oc(-c3ccccc3Cl)nc21` was tested, and the residual activity was 43.1%.
`COc1cc(F)cc(-c2nc3c(o2)C(=O)c2ccccc2C3=O)c1` showed a residual activity of 37.2%.
In the case of `Cc1ccccc1-c1nc2c(o1)C(=O)c1ccccc1C2=O`, the residual activity is reported as 63.6%.
For `O=C1c2ccccc2C(=O)c2oc(-c3c(F)c(F)cc(F)c3F)nc21`, the residual activity was 38.3%.
`CN1CC[C@@H](Oc2cc(Cl)cc(-c3nc4c(o3)C(=O)c3ccccc3C4=O)c2)C1` showed a residual activity of 59.3%.
In the case of `O=C1c2ccccc2C(=O)c2oc(-c3ccc([N+](=O)[O-])cc3)nc21`, the residual activity is reported as 20.2%.
For `O=C1c2ccccc2C(=O)c2oc(-c3ccc(F)cc3F)nc21`, the residual activity was 34.7%.
For `COc1ccccc1-c1nc2c(o1)C(=O)c1ccccc1C2=O`, the residual activity was 43.9%.
Work on `O=C1c2ccccc2C(=O)c2oc(-c3c(Cl)cccc3Cl)nc21` yielded a residual activity of 44.6%.
`COc1cccc(-c2nc3c(o2)C(=O)c2ccccc2C3=O)c1F` was tested, and the residual activity was 42.6%.
`CN1CC[C@@H](Oc2ccc(-c3nc4c(o3)C(=O)c3ccccc3C4=O)c(C(F)(F)F)c2)C1` showed a residual activity of 63.2%.
`O=C1c2ccccc2C(=O)c2oc(-c3ccc(Cl)cc3)nc21` was tested, and the residual activity was 55.9%.
`COc1cc(-c2nc3c(o2)C(=O)c2ccccc2C3=O)ccc1Cl` showed a residual activity of 53.6%.
`CN1CCN(CCOc2cc(-c3nc4c(o3)C(=O)c3ccccc3C4=O)ccc2Cl)CC1` gave a residual activity of 82%.
`Cc1ccc(F)c(-c2nc3c(o2)C(=O)c2ccccc2C3=O)c1F` gave a residual activity of 62.1%.

These compounds were tested against T2, Ubiquitin thioesterase OTUB1 (Homo sapiens, UniProt Q96FW1) (assay: Inhibition of N-terminal His-6 tagged OTUB1 (40 to 271 residues) (unknown origin) expressed in Escherichia coli BL21 (DE3) cells at 100 nM using Ub-Rho measured after 0.5 to 3 hrs by fluorescence based Plate reader method relative to control). Settings: time 0.5-3 hrs, values are per cent of control.
T2 sequence (Q96FW1 whole entry, the tested form may be a part): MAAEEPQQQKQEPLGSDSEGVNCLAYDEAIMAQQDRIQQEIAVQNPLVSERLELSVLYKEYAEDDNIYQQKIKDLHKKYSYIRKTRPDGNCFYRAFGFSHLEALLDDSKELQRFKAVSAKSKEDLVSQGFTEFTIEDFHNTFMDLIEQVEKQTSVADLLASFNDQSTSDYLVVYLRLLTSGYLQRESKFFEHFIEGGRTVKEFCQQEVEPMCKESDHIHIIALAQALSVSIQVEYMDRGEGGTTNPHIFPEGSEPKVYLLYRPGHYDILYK
In the case of `O=C1c2ccccc2C(=O)c2oc(-c3cc(Cl)ccc3Cl)nc21`, the residual activity is reported as 25.2%.
`CN(C)CCOc1cccc(-c2nc3c([nH]2)C(=O)c2ccccc2C3=O)c1` gave a residual activity of 80.4%.
Work on `Cc1ccc(-c2nc3c(o2)C(=O)c2ccccc2C3=O)cc1` yielded a residual activity of 58.7%.
For `O=C1c2ccccc2C(=O)c2oc(-c3ccccc3[N+](=O)[O-])nc21`, the residual activity was 19%.
`O=C1c2ccccc2C(=O)c2oc(-c3cccc(Cl)c3)nc21` was tested, and the residual activity was 34.7%.
Work on `CN1CC[C@@H](Oc2cccc(-c3nc4c(o3)C(=O)c3ccccc3C4=O)c2F)C1` yielded a residual activity of 41.3%.
Compound `O=C1c2ccccc2C(=O)c2oc(-c3ccccc3Cl)nc21` has a residual activity of 25.1%.
Work on `COc1cc(F)cc(-c2nc3c(o2)C(=O)c2ccccc2C3=O)c1` yielded a residual activity of 25.1%.
For `Cc1ccccc1-c1nc2c(o1)C(=O)c1ccccc1C2=O`, the residual activity was 48.4%.
For `O=C1c2ccccc2C(=O)c2oc(-c3c(F)c(F)cc(F)c3F)nc21`, the residual activity was 14.1%.
`CN1CC[C@@H](Oc2cc(Cl)cc(-c3nc4c(o3)C(=O)c3ccccc3C4=O)c2)C1` was tested, and the residual activity was 41.5%.
In the case of `O=C1c2ccccc2C(=O)c2oc(-c3ccc([N+](=O)[O-])cc3)nc21`, the residual activity is reported as 16.3%.
For `O=C1c2ccccc2C(=O)c2oc(-c3ccc(F)cc3F)nc21`, the residual activity was 19.4%.
Work on `COc1ccccc1-c1nc2c(o1)C(=O)c1ccccc1C2=O` yielded a residual activity of 28.3%.
With `O=C1c2ccccc2C(=O)c2oc(-c3c(Cl)cccc3Cl)nc21` the residual activity was 21%.
Work on `COc1cccc(-c2nc3c(o2)C(=O)c2ccccc2C3=O)c1F` yielded a residual activity of 22.4%.
`CN1CC[C@@H](Oc2ccc(-c3nc4c(o3)C(=O)c3ccccc3C4=O)c(C(F)(F)F)c2)C1` was tested, and the residual activity was 42.4%.
With `O=C1c2ccccc2C(=O)c2oc(-c3ccc(Cl)cc3)nc21` the residual activity was 34.2%.
Compound `COc1cc(-c2nc3c(o2)C(=O)c2ccccc2C3=O)ccc1Cl` has a residual activity of 40.4%.
For `CN1CCN(CCOc2cc(-c3nc4c(o3)C(=O)c3ccccc3C4=O)ccc2Cl)CC1`, the residual activity was 38.2%.
`Cc1ccc(F)c(-c2nc3c(o2)C(=O)c2ccccc2C3=O)c1F` showed a residual activity of 22.7%.

These compounds were tested against T1, Ubiquitin carboxyl-terminal hydrolase 8 (Homo sapiens) (assay: Inhibition of N-terminal His-6 tagged USP8 (734 to 1110 residues) (unknown origin) expressed in Escherichia coli BL21 (DE3) cells at 100 nM measured after 3 hrs by fluorescence based Plate reader method relative to control). Settings: values are per cent of control.
Compound `O=C1c2ccccc2C(=O)c2oc(-c3cc(Cl)ccc3Cl)nc21` has a residual activity of 32.2%.
Compound `CN(C)CCOc1cccc(-c2nc3c([nH]2)C(=O)c2ccccc2C3=O)c1` has a residual activity of 86.4%.
Work on `Cc1ccc(-c2nc3c(o2)C(=O)c2ccccc2C3=O)cc1` yielded a residual activity of 44.6%.
For `O=C1c2ccccc2C(=O)c2oc(-c3ccccc3[N+](=O)[O-])nc21`, the residual activity was 21.6%.
`O=C1c2ccccc2C(=O)c2oc(-c3cccc(Cl)c3)nc21` was tested, and the residual activity was 49.3%.
`CN1CC[C@@H](Oc2cccc(-c3nc4c(o3)C(=O)c3ccccc3C4=O)c2F)C1` showed a residual activity of 38.6%.
`O=C1c2ccccc2C(=O)c2oc(-c3ccccc3Cl)nc21` gave a residual activity of 20.8%.
In the case of `COc1cc(F)cc(-c2nc3c(o2)C(=O)c2ccccc2C3=O)c1`, the residual activity is reported as 17.6%.
For `Cc1ccccc1-c1nc2c(o1)C(=O)c1ccccc1C2=O`, the residual activity was 38.1%.
`O=C1c2ccccc2C(=O)c2oc(-c3c(F)c(F)cc(F)c3F)nc21` was tested, and the residual activity was 24.1%.
`CN1CC[C@@H](Oc2cc(Cl)cc(-c3nc4c(o3)C(=O)c3ccccc3C4=O)c2)C1` showed a residual activity of 34.2%.
`O=C1c2ccccc2C(=O)c2oc(-c3ccc([N+](=O)[O-])cc3)nc21` gave a residual activity of 9.3%.
Compound `O=C1c2ccccc2C(=O)c2oc(-c3ccc(F)cc3F)nc21` has a residual activity of 19.3%.
Work on `COc1ccccc1-c1nc2c(o1)C(=O)c1ccccc1C2=O` yielded a residual activity of 21.4%.
Work on `O=C1c2ccccc2C(=O)c2oc(-c3c(Cl)cccc3Cl)nc21` yielded a residual activity of 24.9%.
Work on `COc1cccc(-c2nc3c(o2)C(=O)c2ccccc2C3=O)c1F` yielded a residual activity of 25.5%.
`CN1CC[C@@H](Oc2ccc(-c3nc4c(o3)C(=O)c3ccccc3C4=O)c(C(F)(F)F)c2)C1` showed a residual activity of 42.5%.
For `O=C1c2ccccc2C(=O)c2oc(-c3ccc(Cl)cc3)nc21`, the residual activity was 22.5%.
`COc1cc(-c2nc3c(o2)C(=O)c2ccccc2C3=O)ccc1Cl` was tested, and the residual activity was 30%.
`CN1CCN(CCOc2cc(-c3nc4c(o3)C(=O)c3ccccc3C4=O)ccc2Cl)CC1` showed a residual activity of 50.9%.
`Cc1ccc(F)c(-c2nc3c(o2)C(=O)c2ccccc2C3=O)c1F` showed a residual activity of 30.5%.

What follows are compounds tested against T2, Ubiquitin thioesterase OTUB1 (assay: Inhibition of N-terminal His-6 tagged OTUB1 (40 to 271 residues) (unknown origin) expressed in Escherichia coli BL21 (DE3) cells at 10 nM using Ub-Rho measured after 0.5 to 3 hrs by fluorescence based Plate reader method relative to control). Settings: time 0.5-3 hrs, values are per cent of control.
For `O=C1c2ccccc2C(=O)c2oc(-c3cc(Cl)ccc3Cl)nc21`, the residual activity was 52.7%.
`CN(C)CCOc1cccc(-c2nc3c([nH]2)C(=O)c2ccccc2C3=O)c1` showed a residual activity of 86.5%.
`Cc1ccc(-c2nc3c(o2)C(=O)c2ccccc2C3=O)cc1` showed a residual activity of 66.9%.
`O=C1c2ccccc2C(=O)c2oc(-c3ccccc3[N+](=O)[O-])nc21` was tested, and the residual activity was 47.2%.
With `O=C1c2ccccc2C(=O)c2oc(-c3cccc(Cl)c3)nc21` the residual activity was 60.4%.
`CN1CC[C@@H](Oc2cccc(-c3nc4c(o3)C(=O)c3ccccc3C4=O)c2F)C1` was tested, and the residual activity was 76.7%.
`O=C1c2ccccc2C(=O)c2oc(-c3ccccc3Cl)nc21` gave a residual activity of 60%.
With `COc1cc(F)cc(-c2nc3c(o2)C(=O)c2ccccc2C3=O)c1` the residual activity was 62.8%.
With `Cc1ccccc1-c1nc2c(o1)C(=O)c1ccccc1C2=O` the residual activity was 66.4%.
In the case of `O=C1c2ccccc2C(=O)c2oc(-c3c(F)c(F)cc(F)c3F)nc21`, the residual activity is reported as 39.4%.
For `CN1CC[C@@H](Oc2cc(Cl)cc(-c3nc4c(o3)C(=O)c3ccccc3C4=O)c2)C1`, the residual activity was 75%.
Work on `O=C1c2ccccc2C(=O)c2oc(-c3ccc([N+](=O)[O-])cc3)nc21` yielded a residual activity of 36.1%.
`O=C1c2ccccc2C(=O)c2oc(-c3ccc(F)cc3F)nc21` showed a residual activity of 44.5%.
Work on `COc1ccccc1-c1nc2c(o1)C(=O)c1ccccc1C2=O` yielded a residual activity of 59.2%.
`O=C1c2ccccc2C(=O)c2oc(-c3c(Cl)cccc3Cl)nc21` was tested, and the residual activity was 52.4%.
In the case of `COc1cccc(-c2nc3c(o2)C(=O)c2ccccc2C3=O)c1F`, the residual activity is reported as 52.9%.
In the case of `CN1CC[C@@H](Oc2ccc(-c3nc4c(o3)C(=O)c3ccccc3C4=O)c(C(F)(F)F)c2)C1`, the residual activity is reported as 74.7%.
For `O=C1c2ccccc2C(=O)c2oc(-c3ccc(Cl)cc3)nc21`, the residual activity was 61.3%.
Compound `COc1cc(-c2nc3c(o2)C(=O)c2ccccc2C3=O)ccc1Cl` has a residual activity of 70.2%.
For `CN1CCN(CCOc2cc(-c3nc4c(o3)C(=O)c3ccccc3C4=O)ccc2Cl)CC1`, the residual activity was 75.9%.
`Cc1ccc(F)c(-c2nc3c(o2)C(=O)c2ccccc2C3=O)c1F` gave a residual activity of 53.7%.
